Laboratory results: US20070010671A1, “Novel quinazoline derivatives and methods of treatment related to the use thereof” (priority 2003, published 2007)

molecular target: MCH receptor (Homo sapiens, UniProt Q99705); assay: High throughput functional screening FLIPR/FDSS6000: inhibition of MCH-evoked intracellular Ca2+ changes; type: cell-based; conditions: class by percent of control at 10^-7 M or IC50
From the text: Subsequently, a functional based assay was used to confirm the lead hits, referred to as FLIPR™ (the Fluorometric Imaging Plate Reader) and FDSS6000™ (Functional Drug Screening System). This assay utilized 3 non-endozenous, constitutively active version of the MCH receptor.
The FLIPR and FDSS assays are able to detect intracellular Ca^2+ concentration in cells, which can be utilized to assess receptor activation and determine whether a candidate compound is an, for example, antagonist, inverse agonist or agonist to a Gq-coupled receptor. The concentration of free Ca^2+ in the cytosol of any cell is extremely low, whereas its concentration in the extracellular fluid and endoplasmic reticulum (ER) is very high. Thus, there is a large gradient tending to drive Ca^2+ into the cytosol across both the plasma membrane and ER. The FLIPR™ and FDSS6000™ systems (Molecular Devices Corporation, HAMAMATSU Photonics K.K.) are designed to perform functional cell-based assays, such as the measurement of intracellular calcium for high-throughput screening, The measurement of fluorescent is associated with calcium release upon activation of the Gq-coupled receptors.
Fluorometric Imaging Plate Reader system was used to allow for rapid, kinetic measurements of intracellular fluorescence in 96 well microplates (or 384 well microplates). Simultaneous measurements of fluorescence in all wells can be made by FLIPR or FDSS6000™ every second with high sensitivity and precision. These systems are ideal for measuring cell-based functional assays such as monitoring the intracellular calcium fluxes that occur within seconds after activation of the Gq coupled receptor.
Briefly, the cells are seeded into 96 well at 5.5×10^4 cells/well with complete culture media (Dulbecco's Modified Eagle Medium with 10% fetal bovine serum, 2 mMi L-glutamine, 1 mM sodium pyruvate and 0.5 mg/ml G418, pH 7.4) for the assay next day. On the day of assay, the media is removed and the cells are incubated with 100 μl of loading buffer (4 μM Fluo4-AM in complete culture media containing 2.5 mM Probenicid, 0.5 mg/ml and 0.2% bovine serum albumin) in 5% CO2 incubator at 37° C. for 1 hr. The loading buffer is removed, and the cells are washed with wash buffer (Hank's Balanced Salt Solution containing 2.5 mM Probenicid, 20 mM HEPES, 0.5 mg/ml and 0.2% bovine serum albumm, pH 7.4)). One hundred fifty μl of wash buffer containing various concentrations of test compound is added to the cells, and the cells are incubated in 5% CO2 incubator at 37° C. for 3 min. Fifty μl of wash buffer containing various concentration of MCH are added to each well, and transient changes in [Ca^2+]i evokled bee MCH are monoitored using the FLIPR, or FDSS in 96 shell plates at Ex. 488 nm and Em. 530 nm for 290 second. When antagonist activity of compound is tested, 50 nM of MCH is used.
Use of FLIPR™ and FDSS6000™ can be accomplished by following manufacturer's instruction (Molecular Device Corporation and HAMAMATSU Photonics K.K.).

Structure (SMILES) | class
CN(C)c1nc(N[C@H]2CC[C@@H](NC(=S)Nc3cc(F)cc(F)c3)CC2)nc2ccccc12 [compound 224] | 3 (Class 3: The value of percent of control at 10^−7 M was more than 60% or the value of IC50 was more than 200 nM.)
CN(C)c1nc(N[C@H]2CC[C@@H](CNC(=O)NC3c4ccccc4-c4ccccc43)CC2)nc2ccccc12 [compound 570] | 3 (Class 3: The value of percent of control at 10^−7 M was more than 60% or the value of IC50 was more than 200 nM.)
Cc1ccc(CNC(=S)N[C@H]2CC[C@@H](Nc3nc(N(C)C)c4ccccc4n3)CC2)cc1 [compound 280] | 3 (Class 3: The value of percent of control at 10^−7 M was more than 60% or the value of IC50 was more than 200 nM.)
CN(C)c1nc(N[C@H]2CC[C@@H](CNC(=S)Nc3cc(Cl)ccc3F)CC2)nc2ccccc12 [compound 797, N-(5-choloro-2-fluorophenyl)-N′-[(cis-4-{[4-(dimethylamino)-quinazolin-2-yl]amino}cyclohexyl)methyl]thiourea] | 3 (Class 3: The value of percent of control at 10^−7 M was more than 60% or the value of IC50 was more than 200 nM.)
CCc1ccccc1NC(=O)NC[C@H]1CC[C@@H](Nc2nc(N(C)C)c3ccccc3n2)CC1 [compound 494, N-[(cis-4-{[4-(dimethylamino)quinazolin-2-yl]amino}cyclohexyl)methyl]-N′-(2-ethylphenyl)urea] | 1 (Class 1: The value of percent of control at 10^−7 M was less than 40% or the value of IC50 was less than 50 nM.)
COc1ccc(CCNC(=S)N[C@H]2CC[C@@H](Nc3nc(N(C)C)c4ccccc4n3)CC2)cc1OC [compound 241] | 3 (Class 3: The value of percent of control at 10^−7 M was more than 60% or the value of IC50 was more than 200 nM.)
CN(C)c1nc(N[C@H]2CC[C@@H](CNC(=S)Nc3ccc(F)cc3F)CC2)nc2ccccc12 [compound 635] | 3 (Class 3: The value of percent of control at 10^−7 M was more than 60% or the value of IC50 was more than 200 nM.)
CCc1ccccc1NC(=S)NC[C@H]1CC[C@@H](Nc2nc(N(C)C)c3ccccc3n2)CC1 [compound 640, N-[(cis-4-{[4-(dimethylamino)quinazolin-2-yl]amino}cyclohexyl)methyl]-N′-(2-ethylphenyl)thiourea] | 2 (Class 2: The value of percent of control at 10^−7 M was from 40% to 60% or the value of IC50 was from 50 nM to 200 nM.)
COc1ccc(CNC(=S)NC[C@H]2CC[C@@H](Nc3nc(N(C)C)c4ccccc4n3)CC2)cc1 [compound 701] | 3 (Class 3: The value of percent of control at 10^−7 M was more than 60% or the value of IC50 was more than 200 nM.)
CN(C)c1nc(N[C@H]2CC[C@@H](CNC(=O)Nc3ccsc3)CC2)nc2ccccc12 [compound 764, N-[(cis-4-{[4-(dimethylamino)quinazolin-2-yl]amino}cyclohexyl)methyl]-N′-3-thienylurea] | 2 (Class 2: The value of percent of control at 10^−7 M was from 40% to 60% or the value of IC50 was from 50 nM to 200 nM.)
Cc1cccc(CNC(=S)NC[C@H]2CC[C@@H](Nc3nc(N(C)C)c4ccccc4n3)CC2)c1 [compound 734] | 3 (Class 3: The value of percent of control at 10^−7 M was more than 60% or the value of IC50 was more than 200 nM.)
CC(C)c1ccc(NC(=S)NC[C@H]2CC[C@@H](Nc3nc(N(C)C)c4ccccc4n3)CC2)c(Br)c1 [compound 784] | 3 (Class 3: The value of percent of control at 10^−7 M was more than 60% or the value of IC50 was more than 200 nM.)
CN(C)c1nc(N[C@H]2CC[C@@H](CNC(=S)NC(C)(C)C)CC2)nc2ccccc12 [compound 623] | 3 (Class 3: The value of percent of control at 10^−7 M was more than 60% or the value of IC50 was more than 200 nM.)
CN(C)c1nc(N[C@H]2CC[C@@H](CNC(=S)NC(c3ccccc3)c3ccccc3)CC2)nc2ccccc12 [compound 708, N-[(cis-4-{[4-(dimethylamino)quinazolin-2-yl]amino}cyclohexyl)methyl]-N′-(diphenylmethyl)thiourea] | 2 (Class 2: The value of percent of control at 10^−7 M was from 40% to 60% or the value of IC50 was from 50 nM to 200 nM.)

same assay, conditions: class by percent of control at 10^-7 M or by IC50; read-out: class

IC50 | Structure (SMILES)
> 0.2 µM | CC(C)[C@@H]1CC[C@@H](C)C[C@H]1OC(=O)N[C@H]1CC[C@@H](Nc2nc(N(C)C)c3ccccc3n2)CC1 [compound 860]
0.05 to 0.2 µM | Cc1onc(-c2ccccc2)c1NC(=S)NC[C@H]1CC[C@@H](Nc2nc(N(C)C)c3ccccc3n2)CC1 [compound 819]
< 0.05 µM | CN(C)c1nc(N[C@H]2CC[C@@H](NC(=O)NCc3ccccc3F)CC2)nc2ccccc12 [compound 100, N-(cis-4-{[4-(dimethylamino)quinazolin-2-yl]amino}cyclohexyl)-N′-(2-fluorobenzyl)urea]
> 0.2 µM | CN(C)c1nc(N[C@H]2CC[C@@H](NC(=O)Nc3cc(Cl)cc(Cl)c3)CC2)nc2ccccc12 [compound 23]
> 0.2 µM | CN(C)c1nc(N[C@H]2CC[C@@H](NC(=O)Nc3c(Cl)cccc3Cl)CC2)nc2ccccc12 [compound 84]
0.05 to 0.2 µM | Cc1ccc([N+](=O)[O-])c(NC(=O)N[C@H]2CC[C@@H](Nc3nc(N(C)C)c4ccccc4n3)CC2)c1C [compound 73, N-(cis-4-{[4-(dimethylamino)quinazolin-2-yl]amino}cyclohexyl)-N′-(2,3-dimethyl-6-nitrophenyl)urea]
> 0.2 µM | COc1ccc([N+](=O)[O-])cc1NC(=O)N[C@H]1CC[C@@H](Nc2nc(N(C)C)c3ccccc3n2)CC1 [compound 106]
< 0.05 µM | COc1cc(COC(=O)N[C@H]2CC[C@@H](Nc3nc(N(C)C)c4ccccc4n3)CC2)c([N+](=O)[O-])cc1OC [compound 848]

Structure (SMILES) | IC50
Cc1ccc(OC(=O)N[C@H]2CC[C@@H](Nc3nc(N(C)C)c4ccccc4n3)CC2)cc1 [compound 861] | > 0.2 µM

same assay, conditions: class by percent of control at 10^−7 M or by IC50; read-out: class

IC50 | Structure (SMILES)
< 0.05 µM | CN(C)c1nc(N[C@H]2CC[C@@H](C(=O)NCc3cccc(C(F)(F)F)c3F)CC2)nc2ccccc12 [Example 1177, cis-4-{[4-(dimethylamino)quinazolin-2-yl]amino}-N-[2-fluoro-3-(trifluoromethyl)benzyl]cyclohexanecarboxamide]
0.05 to 0.2 µM | CN(C)c1nc(N[C@H]2CC[C@@H](NC(=O)Nc3ccccc3Cl)CC2)nc2ccccc12 [Example 1011, N-(2-chlorophenyl)-N′-(cis-4-{[4-(dimethylamino)quinazolin-2-yl]amino}cyclohexyl)urea]
< 0.05 µM | C[C@H](NC(=O)[C@H]1CC[C@@H](Nc2nc(N(C)C)c3ccccc3n2)CC1)c1cccc2ccccc12 [Example 1141, cis-4-{[4-(dimethylamino)quinazolin-2-yl]amino}-N-[(1S)-1-(1-naphthyl)ethyl]cyclohexanecarboxamide]
< 0.05 µM | CN(C)c1nc(N[C@H]2CC[C@@H](C(=O)NCc3ccccc3F)CC2)nc2ccccc12 [Example 1151, cis-4-{[4-(dimethylamino)quinazolin-2-yl]amino}-N-(2-fluorobenzyl)cyclohexanecarboxamide]
> 0.2 µM | CN(C)c1nc(N[C@H]2CC[C@@H](NC(=O)c3ccc(Oc4ccc(OC(F)(F)F)cc4)nc3)CC2)nc2ccccc12 [Example 1062, N-(cis-4-{[4-(dimethylamino)quinazolin-2-yl]amino}cyclohexyl)-6-[4-(trifluoromethoxy)phenoxy]nicotinamide]
< 0.05 µM | CN(C)c1nc(N[C@H]2CC[C@@H](C(=O)NCc3ccccc3Br)CC2)nc2cc(F)c(F)cc12 [Example 1003, cis-N-(2-bromobenzyl)-4-{[4-(dimethylamino)-6,7-difluoroquinazolin-2-yl]amino}cyclohexanecarboxamide]
< 0.05 µM | CN(C)c1nc(N[C@H]2CC[C@@H](C(=O)NCc3cccc(F)c3F)CC2)nc2ccccc12 [Example 1159, cis-N-(2,3-difluorobenzyl)-4-{[4-(dimethylamino)quinazolin-2-yl]amino}cyclohexanecarboxamide]
< 0.05 µM | CN(C)c1nc(N[C@H]2CC[C@@H](C(=O)NCc3ccc(Cl)cc3Cl)CC2)nc2cc(F)c(F)cc12 [Example 1000, cis-N-(2,4-dichlorobenzyl)-4-{[4-(dimethylamino)-6,7-difluoroquinazolin-2-yl]amino}cyclohexanecarboxamide]
